The record followed here is US20260184708A1, “PYRIDAZINONES AND METHODS OF USE THEREOF” (GFB (ABC), LLC, priority 2017, published 2026).

For the first experiment, the target named is T1, TRPC5 (Homo sapiens, UniProt Q9UL62).
T1 construct: expressed in transfected cells; host or cells: HEK 293
T1 sequence (Q9UL62 1-973): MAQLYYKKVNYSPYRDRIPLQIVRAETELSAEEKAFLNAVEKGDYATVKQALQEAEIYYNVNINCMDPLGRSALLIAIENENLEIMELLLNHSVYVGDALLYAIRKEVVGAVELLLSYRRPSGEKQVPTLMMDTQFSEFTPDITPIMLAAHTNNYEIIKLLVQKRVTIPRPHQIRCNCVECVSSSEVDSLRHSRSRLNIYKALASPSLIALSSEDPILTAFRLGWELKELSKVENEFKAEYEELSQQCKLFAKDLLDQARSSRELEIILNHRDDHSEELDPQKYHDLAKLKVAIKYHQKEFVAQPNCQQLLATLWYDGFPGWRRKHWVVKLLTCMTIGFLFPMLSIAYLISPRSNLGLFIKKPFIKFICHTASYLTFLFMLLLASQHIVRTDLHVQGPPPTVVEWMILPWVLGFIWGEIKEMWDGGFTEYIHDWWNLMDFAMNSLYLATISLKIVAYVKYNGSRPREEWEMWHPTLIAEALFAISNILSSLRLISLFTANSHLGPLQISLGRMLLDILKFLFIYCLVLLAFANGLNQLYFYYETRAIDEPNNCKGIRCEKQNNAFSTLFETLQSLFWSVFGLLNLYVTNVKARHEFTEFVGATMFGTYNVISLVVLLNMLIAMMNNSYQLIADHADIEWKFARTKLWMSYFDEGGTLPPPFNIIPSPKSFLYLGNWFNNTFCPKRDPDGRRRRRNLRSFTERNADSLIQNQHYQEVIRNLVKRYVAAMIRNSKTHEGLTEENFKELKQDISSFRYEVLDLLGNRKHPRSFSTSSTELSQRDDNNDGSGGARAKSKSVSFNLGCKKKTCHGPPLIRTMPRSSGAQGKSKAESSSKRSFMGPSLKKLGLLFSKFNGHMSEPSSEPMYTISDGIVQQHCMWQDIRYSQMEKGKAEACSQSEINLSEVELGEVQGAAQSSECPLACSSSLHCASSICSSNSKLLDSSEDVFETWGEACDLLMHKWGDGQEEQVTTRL
The experiment is described as follows: TRPC5 automated electrophysiology (Syncropatch - Spatch format). It is filed as cell-based. The following applies: Table 6; HEK293 cells overexpressing TRPC5. On the procedure:
The automated electrophysiological assay was carried out at room temperature. HEK-TRPC5 cells were cultured according to our standard operating procedures. Internal and external physiological solutions were freshly prepared prior to the assay. The free internal Ca2+ concentration was buffered to 1 μM according to the WCabuf software using 10 mMHEDTA. To monitor the ion currents, a voltage ramp from −100 mV to +80 mV, over 250 ms, was applied every 15 seconds, from a holding potential of −60 mV. To stabilize the inward and outward currents the voltage was kept steady at −100 mV and +80 mV for 20 ms. After recording for a minimum of 60 seconds control period, the activator (at 10, 15, 20 or 30 μM) was applied twice, before increasing concentrations of test compound (or vehicle) were applied to the cell. This was followed by a saturating concentration of the specific blocker ML 204 (100 μM). Graphs were plotted using the maximum outward current values obtained at +80 mV during the patch-clamp recordings. Data were normalized using the SyncroPatch384 equation Inorm=1−((Iconc−IFB)/(IRef−IFB)), where Iconc is the current amplitude at each concentration of agonist, IRef is the control current amplitude and IFB is the current in the presence of the saturating blocker ML204. Graphs were constrained between the maximum and minimum values. The series resistance (<15 MΩ) and quality of seals (>100 MΩ) were continuously monitored during the experiments. Data was analyzed using the Nanion Data Control384 software. EC/IC50 values were calculated using a least squares regression algorithm (Hill equation).
As usually defined, the IC50 is the concentration that gives 50% inhibition. For `O=c1[nH]ncc(Cl)c1N1CCc2c(nc(C3CC3)n2Cc2ccccc2C(F)(F)F)C1`, the IC50 was 10 to 500 µM.

`CC[C@H](c1cncc(F)c1)n1cnc2c1CCN(c1cn[nH]c(=O)c1Cl)C2`: the IC50 fell in the range of 1 to 5 µM.

`CC1c2nnn(Cc3ccccc3C(F)F)c2CCN1c1cn[nH]c(=O)c1Cl` (stereo not drawn) [drawing 923] showed an IC50 of 10 to 500 µM.

Consider `CCc1ncccc1Cn1nnc2c1CCN(c1cn[nH]c(=O)c1C#N)C2` [drawing 918], for which the IC50 lay within 1 to 5 µM.

With `O=c1[nH]ncc(N2CCc3c(nnn3Cc3cccnc3C(F)F)C2)c1Cl`, the half-inhibitory concentration (IC50) was 5 to 10 µM.

Compound `CC1c2nnn(Cc3ccccc3C(F)F)c2CCN1c1cn[nH]c(=O)c1Cl` (stereo not drawn) [drawing 924] had an IC50 of 1e-05 to 1 µM.

On to `N#Cc1cc(F)ccc1Cn1nnc2c1CCN(c1cn[nH]c(=O)c1Cl)C2`, for which the IC50 fell in the range of 5 to 10 µM.

As to `CC1Cc2c(nnn2Cc2ccccc2C(F)F)CN1c1cn[nH]c(=O)c1Cl` (stereo not drawn), the IC50 was in the range of 1e-05 to 1 µM.

`COc1cccc(Cn2nnc3c2CCN(c2cn[nH]c(=O)c2Cl)C3)c1C` gave an IC50 of 1 to 5 µM.

`C[C@H]1Cc2c(nnn2Cc2ccccc2C(F)F)CN1c1cn[nH]c(=O)c1Cl` had an IC50 of 10 to 500 µM.

A further experiment addresses T1, TRPC5. The experiment is described as follows: TRPC5 fluorescence assay, membrane potential dye, flexstation (FLEX). It is filed as cell-based. The following applies: Table 6; HEK293 cells overexpressing TRPC5. The protocol: HEK 293 cells expressing human TRPC5 cells were trypsinised, counted and seeded in black, clear-bottomed 96-well plates at a density of 50,000 cells per well and incubated overnight. Next day, the cells were loaded with membrane potential dye. Dye solution was made up according to the manufacturer's instructions in HEPES buffered Hank's balanced salt solution (HBSS). Dye solution (10 μL) was added to the wells and incubated at 37° C. for 1 hour. The test compounds and standard inhibitors were added to the wells and incubated at room temperature for 10 minutes. The plates were then placed in the flexstation and fluorescence monitored every 1.52 seconds. After 20 seconds, 10 μL of the appropriate standard agonist was added and the fluorescence monitored for 2 minutes at ex/emm: 530 nm/565 nm.
`O=c1[nH]ncc(N2CCc3c(cnn3Cc3ccc(F)cc3C(F)(F)F)C2)c1Cl` [drawing 864] returned a half-inhibitory concentration (IC50) of 0.01 to 1000 nM.

Take `CCc1cccnc1Cn1cnc2c1CCN(c1cn[nH]c(=O)c1Cl)C2`: the IC50 is 0.01 to 1000 nM.

`Cc1ccccc1-n1cc2c(n1)CCN(c1cn[nH]c(=O)c1Cl)C2` came in with an IC50 of 1000 to 5000 nM.

Turning to `Cc1ncccc1Cn1cnc2c1CCN(c1cn[nH]c(=O)c1Cl)C2`, the IC50 was in the range of 1000 to 5000 nM.

Another experiment concerns the target T1, TRPC5. The experiment is described as follows: TRPC5 automated patch clamp assay (Qpatch), current block after rosiglitazone stimulation. It is filed as cell-based. The note with it: Table 6; HEK293 cells overexpressing TRPC5; read-out: TRPC5-QPatch IC50. The method in brief:
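Currents were elicited by 300 ms voltage ramps (−100 to +100 mV, every 10 s, holding −60 mV) in human TRPC5-expressing HEK 293 cells on automated patch clamp, with Rosiglitazone (30 uM) activating the channel. Internal Ca2+ buffered to 1 μM; Hill-equation fitting gave IC50.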
A general note: In patch-clamp work, channel activity is measured electrically.
For the compound `O=c1[nH]ncc(N2CCc3c(cnn3Cc3ccc(F)cc3C(F)(F)F)C2)c1Cl` [drawing 864], the IC50 was in the range of 0.01 to 1000 nM.

As for `CCc1cccnc1Cn1cnc2c1CCN(c1cn[nH]c(=O)c1Cl)C2`, the IC50 lay within 1000 to 5000 nM.

As for `Cc1ccccc1-n1cc2c(n1)CCN(c1cn[nH]c(=O)c1Cl)C2`, the IC50 fell in the range of 10000 to 500000 nM.

`Cc1ncccc1Cn1cnc2c1CCN(c1cn[nH]c(=O)c1Cl)C2`: the IC50 is 1000 to 5000 nM.
